# Reference: patent US20190110476A1, “NOVEL ISOTHIAZOLAMIDES, PROCESSES FOR THEIR PREPARATION AND THEIR USE AS FUNGICIDES” (priority 2014, published 2019)
# Marks after values point to notes of the source that are not given here.
# Test: Measurement of LogP values by HPLC on reversed phase columns (EEC directive 79/831 Annex V.A8)
# Assay type: physicochemical
# Method: The abbreviations and numerations of the substituent positions used in the context of the present invention and in the following Tables are explained in detail in the section Examples hereinafter. Also, the LogP values indicated in the following Tables are explained in detail in the section Examples hereinafter. In case LogP values for different diastereoisomers of a specific compound are […], said LogP values are […] by a “+”. […] Measurement of LogP values was performed according to EEC directive 79/831 Annex V.A8 by HPLC (High Performance Liquid Chromatography) on reversed phase columns with the following methods: […] Lambda-max-values were determined using UV-spectra from 200 nm to 400 nm and the peak values of the chromatographic signals
Structure (SMILES),LogP [a],LogP
CCOC(=O)c1snc(NC(=O)c2ccccc2)c1Cl [E-VII-020],2.45^[a],
Cc1c(CNC(=O)c2snc(N)c2Cl)ccc(F)c1F [I-163],,2.23[a]
Nc1nsc(C(=O)NCC2CCCO2)c1Cl (stereo not drawn) [I-013],,1.02[a]
COC(=O)c1snc(N)c1Cl [E-VII-001],1.42^[a],
C#CCOC(=O)N(C(=O)OCC#C)c1nsc(C(=O)N[C@@H](C)C2CCCCC2)c1Cl [I-135],,3.96[a]
COc1ccc(CNc2nsc(C(=O)Nc3cccc4c3C(C)OC4(C)C)c2Cl)cc1 (stereo not drawn) [I-869],,3.96[a]
Nc1nsc(C(=O)N(Cc2c(Cl)cccc2C(F)(F)F)C2CC2)c1Cl [I-215],,3.19[a]
COc1ccc(CNc2nsc(C(=O)NCc3ccc(Cl)cc3C)c2Cl)cc1 [I-376],,4.20[a]
N#Cc1ccccc1NC(=O)c1cc(N(Cc2ccccc2)Cc2ccccc2)ns1 [I-905],,4.26[a]
C#CCOC(=O)Nc1nsc(C(=O)N[C@@H](C)C2CCCCC2)c1Cl [I-137],,3.17[a]
Nc1cc(C(=O)NCc2ccccc2)sn1 [I-008],,1.32[a]
Nc1cc(C(=O)NCc2ccc(F)cc2F)sn1 [I-031],,1.56[a]
Cc1ccc(F)cc1CNC(=O)c1snc(N)c1Cl [I-127],,2.08[a]
Nc1nsc(C(=O)NCc2ccc(Cl)nc2)c1Cl [I-122],,1.31[a]
CCCS(CC)=Nc1nsc(C(=O)NCc2ccc(F)cc2F)c1F (stereo not drawn) [II-094],1.77^[a],
CC(c1cc(Cl)cc(Cl)c1)N(C(=O)c1cc(N(Cc2ccccc2)Cc2ccccc2)ns1)C1CC1 (stereo not drawn) [I-912],,6.54[a]
C[C@H](NC(=O)c1snc(N)c1Cl)C1CCCCC1 [I-003],,2.50[a]
CCc1ccccc1C(C)N(C(=O)c1snc(NCc2ccc(OC)cc2)c1Cl)C1CC1 (stereo not drawn) [I-874],,5.14[a]
O=C(NCc1ccc(Cl)cc1)c1snc(N(C(=O)c2ccccc2)C(=O)c2ccccc2)c1Cl [I-582],,4.39[a]
COc1cccc(CNC(=O)c2snc(N)c2Cl)c1F [I-325],,1.91[a]
O=C(NCC1CCCCO1)c1snc(N=C(c2ccccc2)c2ccccc2)c1Cl (stereo not drawn) [II-008],4.55^[a],
Cc1cc(F)ccc1CNC(=O)c1snc(N)c1Cl [I-784],,2.09[a]
COc1ccc(CNc2nsc(C(=O)OC(C)(C)C)c2Cl)cc1 [E-VII-002],4.74^[a],
COc1ccc(CNc2cc(C(=O)O)sn2)cc1 [E-VIII-016],1.87^[a],
Cc1c(N)nsc1C(=O)NCC1CCCCC1 [I-042],,2.01[a]
O=CNc1nsc(C(=O)NCc2ccc(F)cc2F)c1Cl [I-467],,1.89[a]
Cc1c(N)nsc1C(=O)NCc1cc(F)c(F)c(F)c1 [I-584],,1.92[a]

Structure (SMILES),LogP [a],LogP
O=C(NCc1ccc(Cl)cc1Cl)c1cc(N(Cc2ccccc2)Cc2ccccc2)ns1 [I-323],,5.17[a]
Nc1nsc(C(=O)NCC2(F)CCCC2)c1Br [I-829],,1.83[a]
O=C(Nc1nsc(C(=O)NCC2CCCCC2)c1Cl)c1ccccc1 [I-168],,3.19[a]
C[C@H](NC(=O)c1snc(NC(=O)C2CC2)c1Cl)C1CCCCC1 [I-090],,2.99[a]
C[C@H](NC(=O)c1snc(N)c1Br)C1CCCCC1 [I-818],,2.84[a]
COc1ccc(CNc2nsc(C(=O)NCc3ccc(F)c(OC)c3F)c2Cl)cc1 [I-426],,3.69[a]
"Nc1nsc(C(=O)NCC2CCCC2O)c1Cl (single isomer, unassigned) [I-772]",,1.09[a]
COc1cc(F)ccc1CNC(=O)c1snc(NC(=O)C(F)F)c1Cl [I-820],,2.23[a]
O=C(NCc1ccc(Cl)cc1)c1snc(NC(=O)C(F)F)c1Cl [I-574],,2.51[a]
COc1ccc(CNc2nsc(C(=O)N(C3CC3)C(C)c3ccccc3)c2Cl)cc1 (stereo not drawn) [I-873],,4.17[a]
CCOC(=O)c1snc(NC(=O)c2ccc(F)cc2)c1Cl [E-VII-010],2.62^[a],
CNC(=O)c1snc(N)c1Cl [I-884],,0.32[a]
Nc1cc(C(=O)NCCC2CCCCC2)sn1 [I-853],,2.23[a]
Nc1cc(C(=O)NCC2CCCCC2)sn1 [I-005],,1.92[a]
O=C(NCc1cccc(Cl)c1Cl)c1cc(N(Cc2ccccc2)Cc2ccccc2)ns1 [I-313],,5.01[a]
Cn1cc(CNC(=O)c2snc(N)c2Cl)cn1 [I-033],,0.59[a]
Nc1nsc(C(=O)N(Cc2cc(Cl)cc(C(F)(F)F)c2)C2CC2)c1Cl [I-216],,3.53[a]
CC1(C)CC1N(Cc1ccc(Cl)cc1Cl)C(=O)c1snc(N)c1Cl (stereo not drawn) [I-214],,4.12[a]
Nc1nsc(C(=O)NCc2c(F)ccc(F)c2F)c1Cl [I-129],,1.91[a]
COc1ccc(CNc2nsc(C(=O)NCc3ccc(Cl)cc3)c2Cl)cc1 [I-242],,3.99[a]
CC1CCC(C)(CNC(=O)c2snc(N)c2Cl)CC1 (stereo not drawn) [I-835],,3.17[a]
Cc1ccc(C(C)(C)C)c(CNC(=O)c2snc(N)c2Cl)c1 [I-329],,3.46[a]
Cc1ccc(CNC(=O)c2snc(N)c2Cl)o1 [I-814],,1.66[a]
COc1ccc(CNc2nsc(C(=O)NCc3ccc(F)c(Oc4ccccc4)c3)c2Cl)cc1 [I-223],,4.34[a]
O=C(NCc1cc(F)ccc1F)c1snc(Cl)c1Cl [E-II-011],3.17^[a],
Nc1cc(C(=O)NC2CCCCC2)sn1 [I-007],,1.49[a]
Cc1cc(C)c(CN(C(=O)c2snc(N)c2Cl)C2CC2)c(C)c1 [I-116],,3.46[a]

# Now from value to compound:
LogP [a],LogP,Structure (SMILES)
3.84^[a],,COc1ccc(CNc2nsc(C(=O)N3CCCc4ccccc43)c2Cl)cc1 [II-097]
,4.23[a],COc1ccc(CNc2nsc(C(=O)NC(C)c3ccc(Br)cc3)c2Cl)cc1 (stereo not drawn) [I-1273]
,1.44[a],COc1ccc(CNc2nsc(C(=O)NCCCn3ccnc3C)c2Cl)cc1 [I-1263]
,5.62[a],CCC(c1ccc(Cl)cc1Cl)N(C(=O)c1snc(NCc2ccc(OC)cc2)c1Cl)C1CC1 (stereo not drawn) [I-932]
2.63^[a],,Cc1ccc(S(C)=Nc2nsc(C(=O)NCc3c(F)cc(F)cc3F)c2F)cc1 (stereo not drawn) [II-080]
,3.55[a],COc1ccc(CNc2nsc(C(=O)NC(C)Cc3ccco3)c2Cl)cc1 (stereo not drawn) [I-1239]
,4.13[a],COc1ccc(CNc2nsc(C(=O)NCc3cccc(OC(F)(F)F)c3)c2Cl)cc1 [I-1233]
,3.63[a],COc1ccc(CNc2nsc(C(=O)NCc3ccc(OC(F)F)cc3)c2Cl)cc1 [I-1229]
,4.49[a],COc1ccc(CNc2nsc(C(=O)N(Cc3cc(Cl)ccc3F)C3CC3)c2Cl)cc1 [I-988]
2.73^[a],,Cc1ccc(S(C)=Nc2nsc(C(=O)NCc3ccc(F)c(F)c3F)c2F)cc1 (stereo not drawn) [II-077]
,5.11[a],COc1ccc(CNc2nsc(C(=O)N(Cc3cc(Cl)cc(C(F)(F)F)c3)C3CC3)c2Cl)cc1 [I-947]
,2.48[a],CCn1cc(CNC(=O)c2snc(NCc3ccc(OC)cc3)c2Cl)cn1 [I-1205]
1.39^[a],,CS(C)=Nc1nsc(C(=O)NCc2ccc(F)c(F)c2F)c1F [II-076]
,5.22[a],COc1ccc(CNc2nsc(C(=O)N(C3CC3)C(C)c3ccc(Cl)cc3Cl)c2Cl)cc1 (stereo not drawn) [I-931]
,3.31[a],COc1ccc(CNc2nsc(C(=O)NCc3cccs3)c2Cl)cc1 [I-1241]
,4.40[a],COc1ccc(CNc2nsc(C(=O)NC3CCCCc4ccccc43)c2Cl)cc1 (stereo not drawn) [I-1334]
,3.15[a],COc1ccc(CNc2nsc(C(=O)NCc3cccn3C)c2Cl)cc1 [I-1211]
,2.55[a],Nc1nsc(C(=O)NCCc2ncc(C(F)(F)F)cc2Cl)c1Br [I-964]
3.51^[a],,Cc1ccc(S(C)=Nc2nsc(C(=O)NCC3CCCCC3)c2Cl)cc1 (stereo not drawn) [II-050]
,1.52[a],COc1ccc(CNc2nsc(C(=O)NCc3ccncc3C)c2Cl)cc1 [I-1314]

LogP [a],LogP,Structure (SMILES)
,4.51[a],O=C(c1cc(NCc2ccccc2)ns1)N(Cc1cc(Cl)ccc1Br)C1CC1 [I-1002]
,4.27[a],COc1ccc(CNc2nsc(C(=O)NC3CCCCCC3)c2Cl)cc1 [I-1245]
,3.41[a],COc1ccc(CNc2nsc(C(=O)NCc3cc(OC)cc(OC)c3)c2Cl)cc1 [I-1328]
4.32^[a],,COc1ccc(CNc2nsc(C(=O)NC(C)Cc3ccc(Cl)cc3)c2Cl)cc1 (stereo not drawn) [II-023]
,4.01[a],CCC1(C)CC(NC(=O)c2snc(N)c2Cl)CC(C)(C)C1 (stereo not drawn) [I-1535]
,2.23[a],Nc1nsc(C(=O)NCC2CCCC(Cl)C2)c1Cl (stereo not drawn) [I-1580]
2.15^[a],,O=C(NCC1CCCCC1)c1snc(N=S2CCCC2)c1Cl [II-033]
,3.10[a],C[C@H]1[C@H](CNC(=O)c2snc(N)c2Cl)CCC[C@H]1C (relative stereo) [I-1291]
,2.44[a],Cc1ccc(F)c(CN(C(=O)c2cc(N)ns2)C2CC2)c1 [I-995]
,5.46[a],COc1ccc(CNc2nsc(C(=O)NC3CCCc4cc(C(C)(C)C)ccc43)c2Cl)cc1 (stereo not drawn) [I-1311]
1.30^[a],,CS(C)=Nc1nsc(C(=O)NCc2ccc(F)cc2F)c1F [II-057]
,4.15[a],COc1ccc(CNc2nsc(C(=O)N(Cc3cc(F)ccc3F)C3CC3)c2Cl)cc1 [I-987]
0.32^[a],,CS(C)=Nc1nsc(C(=O)NCC2CCCC2)c1F [II-061]
1.83^[a],,O=C(NCc1ccc(F)c(F)c1F)c1snc(N=S2CCCC2)c1Cl [II-048]
,2.44[a],Cc1ccc(NC(=O)c2snc(N)c2Cl)c(C)c1 [I-923]
4.33^[a],,COc1ccc(CNc2nsc(C(=O)NC(C)Cc3ccccc3Cl)c2Cl)cc1 (stereo not drawn) [II-010]
,2.56[a],COc1ccc(CNc2nsc(C(=O)NC(C)C3=NOCC3)c2Cl)cc1 (stereo not drawn) [I-1337]
3.73^[a],,COc1ccc(CNc2nsc(C(=O)N3CCc4cc(F)ccc4C3)c2Cl)cc1 [II-065]
,3.72[a],COc1ccc(CNc2nsc(C(=O)NCCc3ccc(F)cc3)c2Cl)cc1 [I-961]
